Results from PMC8037161 (International Journal of Molecular Sciences, 2021).
Values joined by “and” are separate entries in the source; they are usually repeats but may differ in a detail not shown here. Equal entries are not always repeated. Where two headings read alike, the source gives them in different places.

Columns and labels:
pBR322 plasmid [1] = conditions: cited from earlier work; for DNA-binding activity expressed as % decrease of fluorescence: previous study
recombinant human DHFR [2] = biological target: T1, recombinant human DHFR (Homo sapiens, UniProt P00374); set-up: method as in PMID 31892256; conditions: previously synthesized TMP analogs A–F; cited from earlier work
T1 construct: purchased
T1 sequence (P00374 1-187): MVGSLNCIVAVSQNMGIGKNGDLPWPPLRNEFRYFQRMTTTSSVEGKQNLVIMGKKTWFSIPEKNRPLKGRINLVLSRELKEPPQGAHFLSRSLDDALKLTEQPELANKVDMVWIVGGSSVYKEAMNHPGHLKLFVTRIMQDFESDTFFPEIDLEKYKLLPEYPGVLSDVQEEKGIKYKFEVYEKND

[3] = system: poly(dA-dT)2 (DNA, polymer) AT; experiment: ethidium bromide displacement, fluorescence; conditions: apparent; room temperature; ethidium bromide displaced; compound 10, 50, 100 µM
poly(dG-dC)2 [4] = experiment: Ethidium displacement assay, apparent binding constant, poly(dG-dC)2; conditions: apparent association constant, ± 0.2 × 10^5 M^−1
Method: (§1) The fluorescence of DNA solutions (calf thymus DNA, T4 coliphage DNA, poly(dA-dT)2 and poly(dG-dC)2 with the investigated compound (final concentrations 10, 50, 100 μM) was measured by fluorescence spectrophotometer Infinite M200 TECAN at room temperature according to the procedure described above. The determination of DNA-binding constants was described in previous articles. The apparent binding constant was calculated from KEtBr [EtBr] = Kapp [drug], where [drug] = the concentration of the tested compound at 50% reduction of fluorescence and KEtBr and [EtBr] are known. The results are reported as a percentage of fluorescence decreases in Table 1.

T4 coliphage DNA [5] = experiment: Ethidium displacement assay, apparent binding constant, T4 coliphage DNA; conditions: apparent association constant, ± 0.2 × 10^5 M^−1
Excerpt: The values of binding constants in the range of 0.7–6.4 × 10^5 M^−1 for T4 coliphage DNA for derivatives 1–18 was evidence of their minor-groove selectivity, because the major groove of T4 coliphage DNA is blocked by a-glycosylation of the 5-(hydroxymethyl)cytidine residues. […] All of the compounds bound to AT-rich sequences weaker than netropsin but some of them bound stronger to GC-rich sequences, e.g., compounds 3, 6, and 10.
as §1

[6] = system: poly(dG-dC)2 (DNA, polymer) GC; experiment: ethidium bromide displacement, fluorescence; conditions: apparent; room temperature; ethidium bromide displaced; compound 10, 50, 100 µM
calf thymus DNA [7] = experiment: Ethidium displacement assay, apparent binding constant, calf thymus DNA; conditions: apparent association constant, ± 0.2 × 10^5 M^−1
Method: as §1

recombinant human DHFR [8] = biological target: T1, recombinant human DHFR; experiment: Dihydrofolate reductase (DHFR) inhibition assay; format: biochemical; conditions: assay kit
pBR322 plasmid [9] = experiment: Ethidium bromide assay, DNA-binding effect on plasmid pBR322; conditions: % fluorescence relative to controls
Excerpt: Fluorescence readings are reported as % fluorescence relative to the controls.

poly(dA-dT)2 [10] = experiment: Ethidium displacement assay, apparent binding constant, poly(dA-dT)2; conditions: apparent association constant, ± 0.2 × 10^5 M^−1
Method: as §1

T4 coliphage DNA [11] = system: T4 coliphage DNA; set-up: method as in earlier work; conditions: reference values; KEtBr known (ref 25, 47); NT ref 48 (table row: ref 45); cited from earlier work
calf thymus DNA [12] = system: calf thymus DNA; set-up: method as in earlier work; conditions: reference values; KEtBr known (ref 25, 47); NT ref 48 (table row: ref 45); cited from earlier work
poly(dG-dC)2 [13] = system: poly(dG-dC)2; set-up: method as in earlier work; conditions: reference values; KEtBr known (ref 25, 47); NT ref 48 (table row: ref 45); cited from earlier work
poly(dA-dT)2 [14] = system: poly(dA-dT)2; set-up: method as in earlier work; conditions: reference values; KEtBr known (ref 25, 47); NT ref 48 (table row: ref 45); cited from earlier work

| Compound | Kapp [3] | Kapp poly (dG-dC)2 (poly(dG-dC)2 [4]) | Kapp [6] | IC50 (recombinant human DHFR [8]) | Decrease of Fluorescence (pBR322 plasmid [9]) | Kapp Poly (dA-dT)2 (poly(dA-dT)2 [10]) | DNA-binding activity expressed as % decrease of fluorescence (pBR322 plasmid [1]) | IC50 (recombinant human DHFR [2]) | Kapp T4 DNA (T4 coliphage DNA [5]) | Kapp Calf Thymus DNA (calf thymus DNA [7]) | Kapp T4 DNA (T4 coliphage DNA [11]) | Kapp Calf Thymus DNA (calf thymus DNA [12]) | Kapp poly (dG-dC)2 (poly(dG-dC)2 [13]) | Kapp Poly (dA-dT)2 (poly(dA-dT)2 [14]) | Decrease of Fluorescence (DNA-binding effect) (pBR322 plasmid [1]; pBR322 plasmid, same conditions, 48 (table row: ref 45)) |
| --- | --- | --- | --- | --- | --- | --- | --- | --- | --- | --- | --- | --- | --- | --- | --- |
| COc1ccc(CC(=O)Nc2cnc(N)nc2)c(OC)c1OC [B] |  |  |  |  |  |  | 45.18% | 0.99 µM |  |  |  |  |  |  |  |
| COc1cc(CCC(=O)Nc2cnc(N)nc2)cc(OC)c1OC [C] |  |  |  |  |  |  | 69.92% |  |  |  |  |  |  |  |  |
| COc1cc(OC)cc(C(=O)Nc2cnc(N)nc2)c1 [Compound 10] | 1.1 ± 0.2 × 10^5 M^−1 | 470000 M⁻¹ | 4.7 ± 0.2 × 10^5 M^−1 | 19.2 ± 0.01 µM | 70.11% | 110000 M⁻¹ |  |  | 70000 M⁻¹ | 260000 M⁻¹ |  |  |  |  |  |
| COc1cccc(C(=O)Nc2cnc(N)nc2)c1 [Compound 11] | 2.6 ± 0.2 × 10^5 M^−1 | 250000 M⁻¹ | 2.5 ± 0.2 × 10^5 M^−1 | 55.32 ± 0.02 µM | 54.54% | 260000 M⁻¹ |  |  | 310000 M⁻¹ | 120000 M⁻¹ |  |  |  |  |  |
| COc1cc(/C=C/C(=O)Nc2cnc(N)nc2)cc(OC)c1OC [Compound 12] | 1.5 ± 0.2 × 10^5 M^−1 | 210000 M⁻¹ | 2.1 ± 0.2 × 10^5 M^−1 | 26.01 ± 0.02 µM | 60.11% | 150000 M⁻¹ |  |  | 280000 M⁻¹ | 210000 M⁻¹ |  |  |  |  |  |
| CC[n+]1c(-c2ccccc2)c2cc(N)ccc2c2ccc(N)cc21 [EtBr, Ethidium bromide] |  |  |  |  | 100% |  |  |  |  |  | 1e+07 M⁻¹ | 1e+07 M⁻¹ | 9.9e+06 M⁻¹ | 95^b* × 10^5 M^−1 |  |
| Cn1cc(NC(=O)c2cc(NC(=O)CN=C(N)N)cn2C)cc1C(=O)NCCC(=N)N [NT, netropsin] |  |  |  | 20.56 ± 0.01 µM |  |  |  |  |  |  | 830000 M⁻¹ | 870000 M⁻¹ | 250000 M⁻¹ | 8.75e+07 M⁻¹ | 74% |

Further lines, with some results ahead:

| Kapp [3] | Kapp poly (dG-dC)2 (poly(dG-dC)2 [4]) | Kapp [6] | IC50 (recombinant human DHFR [8]) | Decrease of Fluorescence (pBR322 plasmid [9]) | Kapp Poly (dA-dT)2 (poly(dA-dT)2 [10]) | Compound | DNA-binding activity expressed as % decrease of fluorescence (pBR322 plasmid [1]) | IC50 (recombinant human DHFR [2]) | Kapp T4 DNA (T4 coliphage DNA [5]) | Kapp Calf Thymus DNA (calf thymus DNA [7]) | Kapp T4 DNA (T4 coliphage DNA [11]) | Kapp Calf Thymus DNA (calf thymus DNA [12]) | Kapp poly (dG-dC)2 (poly(dG-dC)2 [13]) | Kapp Poly (dA-dT)2 (poly(dA-dT)2 [14]) | Decrease of Fluorescence (DNA-binding effect) (pBR322 plasmid [1]; pBR322 plasmid, same conditions, 48 (table row: ref 45)) |
| --- | --- | --- | --- | --- | --- | --- | --- | --- | --- | --- | --- | --- | --- | --- | --- |
| 4.0 ± 0.2 × 10^5 M^−1 | 340000 M⁻¹ | 3.4 ± 0.2 × 10^5 M^−1 | 0.89 ± 0.07 µM | 49.9% and 49.89% | 400000 M⁻¹ | COc1cc(/C=C/C(=O)Nc2ccc(N)cc2)cc(OC)c1OC [Compound 13] |  |  | 290000 M⁻¹ | 190000 M⁻¹ |  |  |  |  |  |
| 8.9 ± 0.2 × 10^5 M^−1 | 420000 M⁻¹ | 4.2 ± 0.2 × 10^5 M^−1 | 0.97 ± 0.02 µM | 43.85% | 890000 M⁻¹ | COc1cc(NC(=O)/C=C/c2cc(OC)c(OC)c(OC)c2)ccc1N [Compound 14] |  |  | 290000 M⁻¹ | 490000 M⁻¹ |  |  |  |  |  |
| 3.1 ± 0.2 × 10^5 M^−1 | 240000 M⁻¹ | 2.4 ± 0.2 × 10^5 M^−1 | 12.01 ± 0.01 µM | 68.82% | 310000 M⁻¹ | COc1cc(/C=C/C(=O)Nc2ccc(N)nc2)cc(OC)c1OC [Compound 15] |  |  | 230000 M⁻¹ | 190000 M⁻¹ |  |  |  |  |  |
| 2.7 ± 0.2 × 10^5 M^−1 | 380000 M⁻¹ | 3.8 ± 0.2 × 10^5 M^−1 | 0.88 ± 0.02 µM | 57.77% | 270000 M⁻¹ | COc1cc(/C=C/C(=O)Nc2ccc(Cl)c(N)c2)cc(OC)c1OC [Compound 16] |  |  | 310000 M⁻¹ | 130000 M⁻¹ |  |  |  |  |  |
| 0.5 ± 0.2 × 10^5 M^−1 | 250000 M⁻¹ | 2.5 ± 0.2 × 10^5 M^−1 | 1.22 ± 0.05 µM | 41.68% | 50000 M⁻¹ | COc1cc(/C=C/C(=O)Nc2ccc(F)c(N)c2)cc(OC)c1OC [Compound 17] |  |  | 290000 M⁻¹ | 180000 M⁻¹ |  |  |  |  |  |
| 4.5 ± 0.2 × 10^5 M^−1 | 460000 M⁻¹ | 4.6 ± 0.2 × 10^5 M^−1 | 2.09 ± 0.04 µM | 42.99% | 450000 M⁻¹ | COc1cc(/C=C/C(=O)Nc2ccc(N)c(I)c2)cc(OC)c1OC [Compound 18] |  |  | 640000 M⁻¹ | 580000 M⁻¹ |  |  |  |  |  |
